In patent EP4635958A1, “PYRIMIDINE-CONTAINING POLYCYCLIC DERIVATIVE INHIBITOR, AND PREPARATION METHOD THEREFOR AND USE THEREOF” (Shanghai Hansoh Biomedical Co., Ltd., priority 2022, dated 2024):
Structures can show the parent of a compound that is named as a salt. Where two headings read alike, the source gives them in different places.

What was measured:
[1] = Pharmacokinetic determination in mice (IV and PO, plasma, LCMS/MS); type: in vivo, Balb/c mice; conditions: for AUC(0-inf) / C0 / clearance / half-life / Cmax / Tmax: mouse, in vivo; for C0: read-out: C0; for clearance: read-out: CL; for half-life: read-out: T1/2 (converted)
Summary of the method: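 Male Balb/c mice, fasted overnight (n=3 per route): PO 30 mg/kg in 10% Captisol/50 mM citrate pH 5.0, or IV 1 mg/kg in 5% DMSO/10% Solutol HS15/85% PBS. Orbital blood sampled predose to 24 h; EDTA plasma analysed by LC-MS/MS.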

[2] = system: human pancreatic cancer cell line (HPAC); test: Antitumor efficacy in mouse transplanted tumor model of human pancreatic cancer cell line (HPAC); type: in vivo, mice (BALB/c nude); conditions: HPAC xenograft, 100mpk, PO*BID; for Tumor volume (mm^3, Mean ± SD) Day 0: Day 0 (baseline)
Excerpt: 8-10 week old female conventional immunodeficient mice (BALB/c nude) with a body weight of 18 g-22 g were used as experimental animals, and a transplanted tumor model of human pancreatic cancer cell line (HPAC) was used to conduct in vivo efficacy experiments to test the anti-tumor results of the example compounds after gavage administration.
The example compounds of the present invention, made in house.
A certain amount of the example compound was weighed, and an appropriate amount of 10% vehicle (Solutol HS15) was added. The mixture was stirred on a magnetic stirrer for 0.5 h to formulate a homogeneous suspension at the desired concentration.
Human pancreatic cancer cell line (HPAC) was derived from COBIOER BIOSCIENCES CO., LTD, cultured on DMEM/F12 medium (Gibco, 11330-032) supplemented with 10% fetal calf serum (Gibco, 10091-148), 1×Insulin (51500-056, Gibco) and 10 ng/ml of EGF (PHG0311, Gibco) and observed under a microscope (Thermo Fisher, 311). The cells were routinely passaged when the cells reached 80%-90% confluence in the culture flask. The passaged cells were cultured in a 37°C, 5% CO2 incubator (Thermo Fisher, 311).
Under aseptic conditions, human pancreatic cancer cells (HPAC) in the logarithmic growth phase were harvested using 0.25% trypsin-EDTA (Gibco, 25200-056), washed and resuspended with phosphate buffer. The cell suspension was mixed with Matrigel (Corning, 356234) at a 1 : 1 ratio (v/v) and implanted subcutaneously into the right anterior dorsal region of immunodeficient mice (BALB/c nude). Each mouse was inoculated with 3*10^6 cells in a volume of 100 microliters (µL). After inoculation, when the tumor volume reached 100-200 mm^3, the mice would be evenly randomized into 5 groups based on the tumor size, with 5 mice per group, for in vivo efficacy experiments. The negative control group was the vehicle group.
Mode of administration: The example compounds were administered orally.
Twice a week, the long and short diameters of the tumor were measured using a vernier caliper, and the tumor volume (mm^3) was calculated using the formula: V = 0.5*D*d*d, where D and d are the long and short diameters of the tumor, respectively. The anti-tumor efficacy was determined by dividing the average increase in tumor volume of compound-treated animals by the average increase in tumor volume of untreated animals. The calculation formula for tumor inhibition rate was: When there is no tumor regression, TGI(%) = 100-[(Vt-V0) administration group/(Vt-V0) vehicle control group]*100%. When tumor regression occurs, TGI(%) = [1-(Vt-V0) administration group/V0 vehicle control group]*100%. All animals were euthanized after the experiment.

[3] = Plasma stability test, rat plasma; conditions: for Remaining rate (%) 0 min / Remaining rate (%) 15 min / Remaining rate (%) 30 min / Remaining rate (%) 60 min / Remaining rate (%) 120 min: Rat plasma, 37°C; for half-life: rat, plasma
[4] = Balb/c mice, intravenously (IV), 1 mg/kg, plasma, read-out: AUCo-∞
[5] = Balb/c mice, intravenously (IV), 1 mg/kg, plasma

| Molecule | AUC(0-inf) [1, 4] [ng·h/mL] | C0 [1, 5] [ng/mL] | clearance [1, 5] [mL/min/kg] | half-life [1, 5] [h] | Tumor volume (mm^3, Mean ± SD) Day 0 ([2]; Table 12) [mm^3] | TGI(%) Day 14 ([2]; Table 12) [%] | ΔT/ΔC(%) Day 14 ([2]; Table 12) [%] | Tumor volume (mm^3, Mean ± SD) Day 21 ([2]; Table 12) [mm^3] | Remaining rate (%) 0 min [3] [%] | Remaining rate (%) 15 min [3] [%] | Remaining rate (%) 30 min [3] [%] | Remaining rate (%) 60 min [3] [%] | Remaining rate (%) 120 min [3] [%] | half-life [3] [h] | Tumor volume (mm^3, Mean ± SD) Day 0 ([2]; Table 11) [mm^3] | TGI(%) Day 21 ([2]; Table 11) [%] | Tumor volume (mm^3, Mean ± SD) Day 21 ([2]; Table 11) [mm^3] | ΔT/ΔC(%) Day 21 ([2]; Table 11) [%] | further results |
| --- | --- | --- | --- | --- | --- | --- | --- | --- | --- | --- | --- | --- | --- | --- | --- | --- | --- | --- | --- |
| C#Cc1c(F)ccc2cc(O)cc(-c3nc4c5c(nc(OCC6(CN7CCC(=NOC)CC7)CC6)nc5c3F)N3C[C@H]5CC[C@H](N5)[C@H]3[C@H](C)O4)c12 [Example 35-1, 1-((1-((((5S,5aS,6S,9R)-2-(8-ethynyl-7-fluoro-3-hydroxynaphthalen-1-yl)-1-fluoro-5-methyl-5a,6,7,8,9,10-hexahydro-5H-4-oxa-3,10a,11,13,14-pentaaza-6,9-methylenenaphtho[1,8-ab]heptalen-12-yl)oxo)methyl)cyclopropyl)methyl)piperidin-4-one O-methyloxime formate] | 144 | 693 | 116 | 3.2 | 469 | 76.39 | 61.00 | 585 |  |  |  |  |  |  |  |  |  |  |  |
| [2H]C([2H])(Oc1nc2c3c(nc(-c4cc(O)cc5ccc(F)c(C#C)c45)c(F)c3n1)O[C@@H](C)[C@@H]1[C@@H]3CC[C@H](CN21)N3)C1(C([2H])([2H])N2CCC(=CF)CC2)CC1 [Example 291, 5-ethynyl-6-fluoro-4-((5S,5aS,6S,9R)-1-fluoro-12-((1-((4-(fluoromethylene)piperidin-1-yl)methyl-d2)cyclopropyl)methoxy-d2)-5-methyl-5a,6,7,8,9,10-hexahydro-5H-4-oxa-3,10a,11,13,14-pentaaza-6,9-methylnaphtho[1,8-ab]hept-2-yl)naphthalen-2-ol] |  |  |  |  |  |  |  |  | 100.00 | 99.67 | 102.83 | 103.48 | 98.20 | 38.3 | 210 | 127.51 | 153 | 13.29 |  |
| [2H]C([2H])([2H])[C@@H]1Oc2nc(-c3cc(O)cc4ccc(F)c(C#C)c34)c(F)c3nc(OCC4(CN5CCC(=C(F)F)CC5)CC4)nc(c23)N2C[C@H]3CC[C@H](N3)[C@@H]12 [Example 161, 4-((5S,5aS,6S,9R)-12-((1-((4-(difluoromethylene)piperidin-1-yl)methyl)cyclopropyl)methoxy)-1-fluoro-5-(methyl-d3)-5a,6,7,8,9,10-hexahydro-5H-4-oxa-3,10a,11,13,14-pentaaza-6,9-methylnaphtho[1,8-ab]hept-2-yl)-5-ethynyl-6-fluoronaphthalen-2-ol] |  |  |  |  |  |  |  |  |  |  |  |  |  | 29.4 | 209 | 137.45 | 131 | 11.47 | AUC(0-inf) ([1]; po, 30 mg/kg): 1550 ng·h/mL; Cmax ([1]; po, 30 mg/kg): 221 ng/mL; Tmax ([1]; po, 30 mg/kg): 2 h |
| 4-((5S,5aS,6R,9S)-12-((1-((((R)-4-(difluoromethylene)-2-methylpiperidin-1-yl)methyl)cyclopropyl)methoxy)-1-fluoro-5-(methyl-d3)-5a,6,7,8,9,10-hexahydro-5H-4-oxa-3,10a,11,13,14-pentaaza-6,9-methylnaphtho[1,8-ab]hept-2-yl)-5-ethynyl-6-fluoronaphthalen-2-ol [Example 162] |  |  |  |  |  |  |  |  |  |  |  |  |  |  | 210 | 126.15 | 155 | 13.54 |  |
| C#Cc1c(F)ccc2cc(O)cc(-c3nc4c5c(nc(OCC6(CN7CCC(=CF)CC7)CC6)nc5c3F)N3C[C@H]5CC[C@H](N5)[C@H]3[C@H](C)O4)c12 [Example 129, 5-ethynyl-6-fluoro-4-((5S,5aS,6S,9R)-1-fluoro-12-((1-((4-(fluoromethylene)piperidin-1-yl)methyl)cyclopropyl)methoxy)-5-methyl-5a,6,7,8,9,10-hexahydro-5H-4-oxa-3,10a,11,13,14-pentaaza-6,9-methylnaphtho[1,8-ab]hept-2-yl)naphthalen-2-ol] |  |  |  |  |  |  |  |  | 100.00 | 110.22 | 98.09 | 106.43 | 95.62 | 41.2 | 209 | 97.63 | 231 | 20.27 |  |
| [2H]C([2H])([2H])[C@@H]1Oc2nc(-c3cc(N)cc(Cl)c3C(F)(F)F)c(F)c3nc(OCC4(CN5CCC(=NOC)CC5)CC4)nc(c23)N2C[C@H]3CC[C@H](N3)[C@@H]12 [Example 339] | 133 | 188 | 125 | 4.8 | 469 | 160.47 | 19.36 | 185 |  |  |  |  |  |  |  |  |  |  | F ([1]; PO 30 mg/kg vs IV 1 mg/kg, male Balb/c mice): 13.8%; AUC(0-inf) ([1]; PO, 30 mg/kg, male Balb/c mice, overnight fasting, plasma, read-out: AUC0-∞): 476 ng·h/mL; Cmax ([1]; PO, 30 mg/kg, male Balb/c mice, overnight fasting, plasma, read-out: Cmax): 143 ng/mL; half-life ([1]; PO, 30 mg/kg, male Balb/c mice, overnight fasting, plasma): 1.8 h; Tmax ([1]; PO, 30 mg/kg, male Balb/c mice, overnight fasting, plasma, read-out: Tmax): 1 h |
